Values joined by “and” are separate entries in the source; they are usually repeats but may differ in a detail not shown here. Equal entries are not always repeated. Toxic doses and inconclusive results are not listed.

This test concerns L1210 leukemia ip in BDF1 mice, survival T/C. Kind of test: NCI In Vivo Anticancer Drug Screen. Data for tumor model L1210 Leukemia (intraperitoneal) in B6D2F1 (BDF1) mice. To be noted: endpoint: mean survival time, higher = longer survival. The method, boiled down:
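Transplantable tumor model; survival measured in treated vs vehicle control mice. Value = treated/control.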

The mark [1] stands for this setting: dose: 100.0 mg/kg/injection, schedule: Q04DX003 (ip), vehicle: Klucel (hydroxypropylcellulose) (HPC).
The mark [2] stands for this setting: dose: 200.0 mg/kg/injection, schedule: Q04DX003 (ip), vehicle: Klucel (hydroxypropylcellulose) (HPC).
Setting [3] is: dose: 100.0 mg/kg/injection, schedule: Q01DX001 (ip), vehicle: other.
Setting [4] is: dose: 200.0 mg/kg/injection, schedule: Q01DX001 (ip), vehicle: other.
The mark [5] stands for this setting: dose: 50.0 mg/kg/injection, schedule: Q01DX001 (ip), vehicle: Klucel (hydroxypropylcellulose) (HPC).
Where [6] appears, read: dose: 100.0 mg/kg/injection, schedule: Q01DX001 (ip), vehicle: Klucel (hydroxypropylcellulose) (HPC).
Where [7] appears, read: dose: 200.0 mg/kg/injection, schedule: Q01DX001 (ip), vehicle: Klucel (hydroxypropylcellulose) (HPC).

As to `CS(=O)(=O)CCN(N=O)C(=N)N[N+](=O)[O-]`, the T/C (dose: 5.1 mg/kg/injection, schedule: Q01DX Z (ip), vehicle: carboxymethylcellulose (CMC)) is 116 % of control; the T/C (dose: 7.7 mg/kg/injection, schedule: Q01DX Z (ip), vehicle: carboxymethylcellulose (CMC)) was 116 % of control; the T/C (dose: 8.8 mg/kg/injection, schedule: Q01DX Z (ip), vehicle: methylcellulose (MC)) was 121 % of control; the T/C (dose: 11.7 mg/kg/injection, schedule: Q01DX Z (ip), vehicle: carboxymethylcellulose (CMC)) was 116 % of control; the T/C (dose: 12.0 mg/kg/injection, schedule: Q01DX Z (sc), vehicle: carboxymethylcellulose (CMC)) is 101 % of control; the T/C (dose: 17.7 mg/kg/injection, schedule: Q01DX Z (ip), vehicle: carboxymethylcellulose (CMC)) is 123 % of control. For the same compound, the T/C was 117 % of control (dose: 20.0 mg/kg/injection, schedule: Q01DX Z (ip), vehicle: methylcellulose (MC)); 117 % of control (dose: 24.0 mg/kg/injection, schedule: Q01DX Z (sc), vehicle: carboxymethylcellulose (CMC)); 155 % of control (dose: 40.0 mg/kg/injection, schedule: Q01DX Z (ip), vehicle: carboxymethylcellulose (CMC)); 106 % of control (dose: 45.0 mg/kg/injection, schedule: Q01DX Z (oral), vehicle: carboxymethylcellulose (CMC)); 101 % of control (dose: 48.0 mg/kg/injection, schedule: Q01DX Z (sc), vehicle: carboxymethylcellulose (CMC)); 150 % of control (dose: 60.0 mg/kg/injection, schedule: Q01DX Z (ip), vehicle: carboxymethylcellulose (CMC)). Moreover, the T/C was 168 % of control (dose: 60.0 mg/kg/injection, schedule: Q01DX Z (ip), vehicle: methylcellulose (MC)); 122 % of control (dose: 90.0 mg/kg/injection, schedule: Q01DX Z (ip), vehicle: methylcellulose (MC)); 105 % of control (dose: 90.0 mg/kg/injection, schedule: Q01DX Z (oral), vehicle: carboxymethylcellulose (CMC)); 112 % of control (dose: 96.0 mg/kg/injection, schedule: Q01DX Z (sc), vehicle: carboxymethylcellulose (CMC)); 119 % of control (dose: 135.0 mg/kg/injection, schedule: Q01DX Z (ip), vehicle: methylcellulose (MC)); 118 % of control (dose: 180.0 mg/kg/injection, schedule: Q01DX Z (oral), vehicle: carboxymethylcellulose (CMC)). Besides, for the setting “dose: 360.0 mg/kg/injection, schedule: Q01DX Z (oral), vehicle: carboxymethylcellulose (CMC)”, the T/C is 114 % of control.

In the case of `CC(OC(=O)Oc1ccccc1)c1ccccc1` (configuration not stated), the T/C under setting [1] is 98 % of control; the T/C under setting [2] was 107 % of control; the T/C (dose: 400.0 mg/kg/injection, schedule: Q04DX003 (ip), vehicle: Klucel (hydroxypropylcellulose) (HPC)) was 98 % of control.

`CCOC(=O)CCCC(=O)c1ccc(OC)c(OC)c1`: the T/C is 100 % of control (dose: 100.0 mg/kg/injection, schedule: Q01DX001 (ip), vehicle: carboxymethylcellulose (CMC)); 102 % of control (dose: 200.0 mg/kg/injection, schedule: Q01DX001 (ip), vehicle: carboxymethylcellulose (CMC)); 100 % of control (dose: 400.0 mg/kg/injection, schedule: Q01DX001 (ip), vehicle: carboxymethylcellulose (CMC)).

With `Nc1cc(=O)[nH][nH]1`, the T/C (dose: 100.0 mg/kg/injection, schedule: Q01DX009 (ip), vehicle: saline) is 98 % of control; the T/C (dose: 100.0 mg/kg/injection, schedule: Q04DX003 (ip), vehicle: saline) is 102 % of control; the T/C (dose: 200.0 mg/kg/injection, schedule: Q01DX009 (ip), vehicle: saline) was 106 % of control; the T/C (dose: 200.0 mg/kg/injection, schedule: Q01DX Z (ip), vehicle: carboxymethylcellulose (CMC)) was 115 % of control; the T/C (dose: 200.0 mg/kg/injection, schedule: Q01DX Z (ip), vehicle: saline) is 115 % of control; the T/C (dose: 200.0 mg/kg/injection, schedule: Q04DX003 (ip), vehicle: saline) was 107 % of control. Besides, the T/C runs as follows: (dose: 300.0 mg/kg/injection, schedule: Q01DX Z (ip), vehicle: carboxymethylcellulose (CMC)) 115 % of control; (dose: 300.0 mg/kg/injection, schedule: Q01DX Z (ip), vehicle: saline) 123 % of control; (dose: 400.0 mg/kg/injection, schedule: Q01DX009 (ip), vehicle: saline) 120 % of control; (dose: 400.0 mg/kg/injection, schedule: Q04DX003 (ip), vehicle: saline) 105 % of control; (dose: 450.0 mg/kg/injection, schedule: Q01DX Z (ip), vehicle: carboxymethylcellulose (CMC)) 121 % of control; (dose: 675.0 mg/kg/injection, schedule: Q01DX Z (ip), vehicle: saline) 112 % of control.

For `Cn1c(Cl)c(C(=O)O)c2ccccc21`, the T/C reads like this: (dose: 50.0 mg/kg/injection, schedule: Q04DX002 (ip), vehicle: Klucel (hydroxypropylcellulose) (HPC)) 97 % of control; (dose: 100.0 mg/kg/injection, schedule: Q04DX002 (ip), vehicle: Klucel (hydroxypropylcellulose) (HPC)) 97 % of control; (dose: 200.0 mg/kg/injection, schedule: Q04DX002 (ip), vehicle: Klucel (hydroxypropylcellulose) (HPC)) 101 % of control.

As to `CC1=C(/C=C/C(C)=C/C=C/C(C)=C/CO)C(C)(C)CCC1`, the T/C runs as follows: (dose: 50.0 mg/kg/injection, schedule: Q01DX009 (ip), vehicle: steriod suspending solution) 90 % of control; under setting [3], 100 % of control; (dose: 100.0 mg/kg/injection, schedule: Q01DX009 (ip), vehicle: steriod suspending solution) 95 % of control; (dose: 150.0 mg/kg/injection, schedule: Q01DX001 (ip), vehicle: other) 98 % of control; under setting [4], 95 % of control and 102 % of control; (dose: 200.0 mg/kg/injection, schedule: Q01DX001 (sc), vehicle: steriod suspending solution) 101 % of control. Besides, the T/C (dose: 400.0 mg/kg/injection, schedule: Q01DX001 (sc), vehicle: steriod suspending solution) was 98 % of control.

For the compound `COc1ccc(-n2c(O)c(N=Nc3ccccc3OC)c(=O)n(-c3ccccc3)c2=S)cc1`, the T/C runs as follows: under setting [5], 94 % of control; under setting [6], 92 % of control; under setting [7], 92 % of control.

With `CC(C)C(C=NCC(CCN(C)C)(c1ccc2ccccc2c1)C(C)C)(CCN(C)C)c1ccc2ccccc2c1` (configuration not stated), the T/C was 87 % of control (dose: 6.25 mg/kg/injection, schedule: Q04DX002 (ip), vehicle: saline + alcohol); 93 % of control (dose: 12.5 mg/kg/injection, schedule: Q04DX002 (ip), vehicle: saline + alcohol); 93 % of control (dose: 25.0 mg/kg/injection, schedule: Q04DX002 (ip), vehicle: saline + alcohol).

Take `O=C(/C=C(/C(=C/C(=O)c1ccccc1)c1ccccc1)c1ccccc1)c1ccccc1`: the T/C runs as follows: (dose: 50.0 mg/kg/injection, schedule: Q01DX009 (ip), vehicle: Klucel (hydroxypropylcellulose) (HPC)) 102 % of control; (dose: 100.0 mg/kg/injection, schedule: Q01DX009 (ip), vehicle: Klucel (hydroxypropylcellulose) (HPC)) 94 % of control; (dose: 200.0 mg/kg/injection, schedule: Q01DX009 (ip), vehicle: Klucel (hydroxypropylcellulose) (HPC)) 87 % of control.

Turning to `CC(C)C(C)C(N)C(=O)O` (configuration not stated), the T/C under setting [3] is 101 % of control; the T/C under setting [4] was 95 % of control; the T/C (dose: 400.0 mg/kg/injection, schedule: Q01DX001 (ip), vehicle: other) was 106 % of control.

For the compound `CCCCCCCCCC(=O)Nc1ccccc1CC`, the T/C is, setting by setting: (dose: 100.0 mg/kg/injection, schedule: Q04DX002 (ip), vehicle: other) 116 % of control; (dose: 200.0 mg/kg/injection, schedule: Q04DX002 (ip), vehicle: other) 105 % of control; (dose: 400.0 mg/kg/injection, schedule: Q04DX002 (ip), vehicle: other) 101 % of control.

Take `CCCC(CC)C(=O)OCCCSCCCOC(=O)C(CC)CCC` (configuration not stated): the T/C reads like this: (dose: 222.0 mg/kg/injection, schedule: Q01DX Z (ip), vehicle: methylcellulose (MC)) 92 % of control; (dose: 333.0 mg/kg/injection, schedule: Q01DX Z (ip), vehicle: methylcellulose (MC)) 94 % of control; (dose: 500.0 mg/kg/injection, schedule: Q01DX Z (ip), vehicle: methylcellulose (MC)) 87 % of control.

Consider `Cc1cc(C)c(CCc2c(C)cc(C)cc2C)c(C)c1`, for which the T/C (dose: 200.0 mg/kg/injection, schedule: Q04DX003 (ip), vehicle: saline with Tween-80) was 104 % of control and the T/C (dose: 400.0 mg/kg/injection, schedule: Q04DX003 (ip), vehicle: saline with Tween-80) was 102 % of control.

`COc1c(C)c2c(c(Br)c1N)COCO2`: the T/C is, setting by setting: under setting [5], 94 % of control; under setting [6], 92 % of control; under setting [1], 95 % of control; under setting [7], 94 % of control; under setting [2], 97 % of control.

These data come from PubChem BioAssay AID248 (DTP/NCI, 2004).
